Assay results: PMC11434749, “In Vitro Interaction of Binuclear Copper Complexes with Liver Drug-Metabolizing Cytochromes P450” (Pharmaceuticals, 2024)

Assay: Stability on recrystallization from water and methanol
Assay type: physicochemical
Conditions: recrystallized from water and from methanol, crystals of the same composition
Method: [Cu2(μ-fu)(pmdien)2(H2O)2](ClO4)2 (complex No. 5) and [Cu2(μ-dtdp)(pmdien)2(H2O)2](ClO4)2 (complex No. 6) were prepared according to a published procedure. […] The structure of complex No. 6 was presented by us in [20]. The structure of complex No. 5 was measured again (the structure was previously solved with worse parameters by Mautner), and our new single crystal data were deposited under CCDC 2378750. Tables with crystal data, structure refinement, and selected bond lengths and angles are presented in ESI (Tables S1–S3). The molecular structures are depicted in Figure 1. It can be seen that the binuclear copper complexes differ in the dicarboxylato bridge. The coordination number on copper is five. All the copper centers are coordinated by three nitrogen atoms of tridentate chelating ligand pmdien and two oxygen atoms. One oxygen is from a water molecule, and the second one is from a monodentately bonding carboxylato group. The fumarato bridge contains a double bond, whereas the dithiodipropionato bridge is longer, with two sulfur atoms. Neither the double bond nor the sulfur atoms are involved in coordination with central atoms. Two perchlorate anions in each molecule are not involved in coordination. There are only hydrogen bonds among the oxygen atoms of the perchlorate group and hydrogens of the coordination cation.

CN(C)CCN(C)CCN(C)C.CN(C)CCN(C)CCN(C)C.O.O.O=C([O-])/C=C/C(=O)[O-].[Cu+2].[Cu+2].[O-][Cl+3]([O-])([O-])[O-].[O-][Cl+3]([O-])([O-])[O-] [Complex No. 5, [Cu2(μ-fu)(pmdien)2(H2O)2](ClO4)2]
stability of the complex in solvents: very good stability
